Results reported in ChEMBL document CHEMBL3286110, “Synthesis, cytotoxicity, DNA binding and topoisomerase II inhibition of cassiarin A derivatives” (Bioorg Med Chem Lett, 2014).
Calls of active or inactive are those of the source. The rule behind the calls is not given here.

What was measured:
KATO III cell = assay: (§1) Cytotoxicity against human KATO III cells assessed as cell viability at 100 uM after 3 days by MTT assay relative to control; assay type: functional
Ca-Ski = assay: (§2) Cytotoxicity against human CaSki cells assessed as cell viability at 100 uM after 3 days by MTT assay relative to control; assay type: functional
SW-620 [1] = assay: Cytotoxicity against human SW620 cells assessed as cell viability at 100 uM after 3 days by MTT assay relative to control; assay type: functional; conditions: for viability at 100 µM: SW-620, 72 h, read-out: Activity
BT-474 [2] = assay: Cytotoxicity against human BT474 cells assessed as cell viability at 100 uM after 3 days by MTT assay relative to control; assay type: functional; conditions: for viability at 100 µM: BT-474, 72 h, read-out: Activity
HepG2 [3] = assay: Cytotoxicity against human HepG2 cells assessed as cell viability at 100 uM after 3 days by MTT assay relative to control; assay type: functional; conditions: for viability at 100 µM: HepG2, 72 h, read-out: Activity
ChaGo = assay: (§3) Cytotoxicity against human ChaGo cells assessed as cell viability at 100 uM after 3 days by MTT assay relative to control; assay type: functional
Calf thymus DNA [4] = assay: Binding affinity to calf thymus DNA assessed as melting temperature at 30 uM by thermal denaturation assay; assay type: nucleic-acid assay; conditions: Bos taurus
[5] = as §1; assay type: functional; conditions: 72 h, read-out: Activity
[6] = as §2; assay type: functional; conditions: Ca-Ski, 72 h, read-out: Activity
[7] = as §3; assay type: functional; conditions: 72 h, read-out: Activity
HepG2 [8] = assay: Cytotoxicity against human HepG2 cells after 3 days by MTT assay; assay type: functional, cell-based; conditions: HepG2, 72 h
WI-38 = assay: Cytotoxicity against human WI38 cells at 1 to 60 uM after 3 days by MTT assay; assay type: cell-based; conditions: wi-38, 72 h
[9] = target: DNA topoisomerase 2-alpha (Homo sapiens) (UniProt P11388); assay: Inhibition of human DNA topoisomerase-2-mediated decatenation of kinetoplast DNA at 100 uM after 1 hr by electrophoretic analysis relative to control
SW-620 [10] = assay: Cytotoxicity against human SW620 cells after 3 days by MTT assay; assay type: functional, cell-based; conditions: SW-620, 72 h
Bos taurus [11] = organism: Bos taurus; assay: Displacement of ethidium bromide from calf thymus DNA by Stern-Volmer plot analysis
[12] = Cytotoxicity against human CaSki cells after 3 days by MTT assay; assay type: functional, cell-based; conditions: Ca-Ski, 72 h
Calf thymus DNA [13] = assay: Binding affinity to calf thymus DNA assessed as change in melting temperature at 30 uM by thermal denaturation assay; assay type: nucleic-acid assay; conditions: Bos taurus
[14] = Cytotoxicity against human KATO III cells after 3 days by MTT assay; assay type: functional, cell-based, KATO III cell; conditions: 72 h
[15] = Cytotoxicity against human ChaGo cells after 3 days by MTT assay; assay type: functional, cell-based; conditions: 72 h
Bos taurus [16] = organism: Bos taurus; assay: Displacement of ethidium bromide from calf thymus DNA by fluorescence spectroscopic analysis
[17] = target: DNA topoisomerase 2-alpha (Homo sapiens) (UniProt P11388); assay: Inhibition of human DNA topoisomerase-2-mediated decatenation of kinetoplast DNA at 50 uM after 1 hr by electrophoretic analysis relative to control
[18] = target: DNA topoisomerase 2-alpha (Homo sapiens) (UniProt P11388); assay: Inhibition of human DNA topoisomerase-2-mediated decatenation of kinetoplast DNA at 30 uM after 1 hr by electrophoretic analysis relative to control
[19] = target: DNA topoisomerase 2-alpha (Homo sapiens) (UniProt P11388); assay: Inhibition of human DNA topoisomerase-2-mediated decatenation of kinetoplast DNA at 10 uM after 1 hr by electrophoretic analysis relative to control
BT-474 [20] = assay: Cytotoxicity against human BT474 cells after 3 days by MTT assay; assay type: functional, cell-based; conditions: BT-474, 72 h

Chain of DNA topoisomerase 2-alpha (Homo sapiens) (P11388 whole entry): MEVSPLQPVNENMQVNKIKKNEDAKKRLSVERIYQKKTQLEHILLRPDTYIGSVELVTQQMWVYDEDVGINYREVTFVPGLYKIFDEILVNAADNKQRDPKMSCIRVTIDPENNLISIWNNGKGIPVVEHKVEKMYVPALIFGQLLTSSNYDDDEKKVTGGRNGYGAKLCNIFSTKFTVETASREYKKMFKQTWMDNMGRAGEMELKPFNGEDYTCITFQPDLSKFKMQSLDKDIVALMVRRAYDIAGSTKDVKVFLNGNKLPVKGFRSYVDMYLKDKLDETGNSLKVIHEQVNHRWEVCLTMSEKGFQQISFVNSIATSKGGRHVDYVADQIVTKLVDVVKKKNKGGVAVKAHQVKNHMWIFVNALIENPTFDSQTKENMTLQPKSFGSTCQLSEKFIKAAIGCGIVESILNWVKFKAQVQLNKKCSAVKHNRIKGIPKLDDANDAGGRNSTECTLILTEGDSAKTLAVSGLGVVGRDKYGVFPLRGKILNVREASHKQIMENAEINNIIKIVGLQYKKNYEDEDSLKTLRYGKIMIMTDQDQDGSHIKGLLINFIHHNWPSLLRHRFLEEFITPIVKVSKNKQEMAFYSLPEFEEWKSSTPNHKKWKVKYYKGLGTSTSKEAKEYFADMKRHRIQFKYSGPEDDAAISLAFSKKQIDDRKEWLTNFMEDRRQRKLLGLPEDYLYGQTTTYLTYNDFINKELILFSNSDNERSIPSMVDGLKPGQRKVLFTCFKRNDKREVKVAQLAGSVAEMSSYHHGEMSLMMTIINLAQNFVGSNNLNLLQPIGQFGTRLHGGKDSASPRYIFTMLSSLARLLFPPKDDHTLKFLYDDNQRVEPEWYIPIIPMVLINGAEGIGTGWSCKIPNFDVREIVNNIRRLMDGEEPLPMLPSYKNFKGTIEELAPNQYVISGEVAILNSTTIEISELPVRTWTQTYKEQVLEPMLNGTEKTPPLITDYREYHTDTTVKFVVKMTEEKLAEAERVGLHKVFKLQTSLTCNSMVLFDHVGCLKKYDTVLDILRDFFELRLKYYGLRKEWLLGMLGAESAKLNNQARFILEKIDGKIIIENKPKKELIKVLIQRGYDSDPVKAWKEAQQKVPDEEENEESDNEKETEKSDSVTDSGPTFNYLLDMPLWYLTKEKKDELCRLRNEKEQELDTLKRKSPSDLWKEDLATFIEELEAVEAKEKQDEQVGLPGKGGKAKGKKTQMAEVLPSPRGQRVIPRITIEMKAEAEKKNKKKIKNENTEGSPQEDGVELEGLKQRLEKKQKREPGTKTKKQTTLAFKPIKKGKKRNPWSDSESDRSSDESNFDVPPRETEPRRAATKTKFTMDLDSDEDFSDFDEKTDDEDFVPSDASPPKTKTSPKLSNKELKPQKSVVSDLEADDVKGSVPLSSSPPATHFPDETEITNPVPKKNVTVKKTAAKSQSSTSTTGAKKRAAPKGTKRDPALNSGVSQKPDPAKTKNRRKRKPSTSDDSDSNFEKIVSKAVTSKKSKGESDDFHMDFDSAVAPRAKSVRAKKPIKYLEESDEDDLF

Compound	Activity (KATO III cell)	Activity (Ca-Ski)	Activity (SW-620 [1])	Activity (BT-474 [2])	Activity (HepG2 [3])	Activity (ChaGo)	Tm (Calf thymus DNA [4])	further results
CC1=Cc2nc(C)cc3cc(OCCO)cc(c23)O1	inactive	inactive	inactive	inactive	inactive	inactive	–	–
CCC(=O)Oc1cc2c3c(nc(C)cc3c1)C=C(C)O2	inactive	inactive	inactive	inactive	inactive	inactive	–	–
CC1=Cc2nc(C)cc3cc(OC(=O)CCCBr)cc(c23)O1	inactive	inactive	inactive	inactive	inactive	inactive	–	–
CCCC(=O)Oc1cc2c3c(nc(C)cc3c1)C=C(C)O2	inactive	inactive	inactive	inactive	inactive	inactive	–	–
CC1=Cc2nc(C)cc3cc(O)cc(c23)O1 [CASSIARIN A]	–	–	–	–	–	–	70.7 °C	viability at 100 µM [5]: > 20%; viability at 100 µM [6]: > 20%; viability at 100 µM (SW-620 [1]): > 20%; viability at 100 µM (BT-474 [2]): > 20%; viability at 100 µM (HepG2 [3]): > 20%; viability at 100 µM [7]: > 20%
CC1=Cc2nc(C)cc3cc(OC(=O)c4ccc(C)cc4)cc(c23)O1	inactive	inactive	inactive	inactive	inactive	inactive	–	–
CC1=Cc2nc(C)cc3cc(OCCN(C)C)cc(c23)O1	–	–	–	–	–	–	> 86 °C	IC50 (HepG2 [8]): 10.1 µM; Activity (WI-38): Non-toxic; inhibition [9]: 30.1%; IC50 (SW-620 [10]): 9.85 µM; KSV (Bos taurus [11]): 2.1 ×10⁴ /M; IC50 [12]: 30.2 µM; viability at 100 µM (BT-474 [2]): > 20%; ΔTm (Calf thymus DNA [13]): > 15.3 °C; IC50 [14]: 9.82 µM; IC50 [15]: 29.5 µM; Kapp (Bos taurus [16]): 2.1 ×10⁶ /M
CC1=Cc2nc(C)cc3cc(OC(=O)c4ccc([N+](=O)[O-])cc4)cc(c23)O1	inactive	inactive	inactive	inactive	inactive	inactive	–	–
CC1=Cc2nc(C)cc3cc(OC(=O)c4ccc(Cl)cc4)cc(c23)O1	inactive	inactive	inactive	inactive	inactive	inactive	–	–
CC1=Cc2nc(C)cc3cc(O[Se]c4ccccc4)cc(c23)O1	–	–	–	–	–	–	70 °C	Activity (WI-38): Non-toxic; inhibition [9]: > 95%; inhibition [17]: 95.7%; inhibition [18]: 75.7%; IC50 [12]: 29.7 µM; viability at 100 µM [5]: > 20%; inhibition [19]: 31.5%; viability at 100 µM (SW-620 [1]): > 20%; viability at 100 µM (BT-474 [2]): > 20%; viability at 100 µM (HepG2 [3]): > 20%; viability at 100 µM [7]: > 20%
CCCCC(=O)Oc1cc2c3c(nc(C)cc3c1)C=C(C)O2	inactive	inactive	inactive	inactive	inactive	inactive	–	–
CC1=Cc2nc(C)cc3cc(OC(=O)c4ccc(F)cc4)cc(c23)O1	inactive	inactive	inactive	inactive	inactive	inactive	–	–
CN(C)CCN1C(=O)c2cccc3cc(N)cc(c23)C1=O [AMONAFIDE]	–	–	–	–	–	–	78.9 °C	IC50 (HepG2 [8]): 1.71 µM; Activity (WI-38): Toxic; inhibition [9]: 61.8%; IC50 (SW-620 [10]): 0.32 µM; IC50 [12]: 9.96 µM; IC50 (BT-474 [20]): 37.8 µM; ΔTm (Calf thymus DNA [13]): 8.2 °C; IC50 [14]: 9.24 µM; IC50 [15]: 1.05 µM
CC1=Cc2nc(C)cc3cc(OCCOCCO)cc(c23)O1	–	–	–	–	–	–	75.7 °C	IC50 (HepG2 [8]): 29.8 µM; Activity (WI-38): Non-toxic; inhibition [9]: inactive; KSV (Bos taurus [11]): 4.3 ×10³ /M; viability at 100 µM [6]: > 20%; viability at 100 µM (SW-620 [1]): > 20%; viability at 100 µM (BT-474 [2]): > 20%; viability at 100 µM [7]: > 20%; ΔTm (Calf thymus DNA [13]): 4.8 °C; IC50 [14]: 10.1 µM
